{
  "source": "ChEMBL document CHEMBL1131838",
  "about": "“8-acenaphthen-1-yl-1-phenyl-1,3,8-triaza-spiro[4.5]decan-4-one derivatives as orphanin FQ receptor agonists” (Bioorg Med Chem Lett, 1999)",
  "key": {"[1]": {"experiment": "Compound was evaluated for the opioid receptor agonistic activity at dose 1-10 mg/kg by intraperitoneal administration; Inactive", "assay_type": "functional, organism-based"}, "Rattus norvegicus [2]": {"tested_on": "Rattus norvegicus", "experiment": "Forced motor performance in rats was determined and grip strength was reported at 3.2 mg/kg by ip administration", "assay_type": "functional", "details": "route intraperitoneal"}, "Rattus norvegicus [3]": {"tested_on": "Rattus norvegicus", "experiment": "Spontaneous locomotion in rats was determined and distance moved was reported at dose 1 mg/kg by ip administration", "assay_type": "functional", "details": "route intraperitoneal"}, "D(2) dopamine receptor": {"target": "D(2) dopamine receptor (Homo sapiens, UniProt P14416)", "sequence (P14416 whole entry)": "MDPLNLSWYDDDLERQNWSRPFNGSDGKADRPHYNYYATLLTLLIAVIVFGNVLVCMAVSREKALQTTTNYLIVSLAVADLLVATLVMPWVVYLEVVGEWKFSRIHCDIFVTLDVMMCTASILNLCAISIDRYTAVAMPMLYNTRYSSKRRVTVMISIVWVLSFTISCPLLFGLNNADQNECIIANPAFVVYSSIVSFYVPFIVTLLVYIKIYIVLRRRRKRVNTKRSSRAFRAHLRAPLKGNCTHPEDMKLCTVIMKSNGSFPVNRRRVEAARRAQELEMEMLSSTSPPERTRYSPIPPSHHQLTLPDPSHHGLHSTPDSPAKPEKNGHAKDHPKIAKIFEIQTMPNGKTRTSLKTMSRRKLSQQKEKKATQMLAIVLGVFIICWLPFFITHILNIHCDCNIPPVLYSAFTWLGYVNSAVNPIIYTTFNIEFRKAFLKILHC", "experiment": "Affinity against Dopamine receptor D2"}, "[4]": {"target": "T1, 5-hydroxytryptamine receptor 2C (Homo sapiens, UniProt P28335)", "T1 sequence (P28335 whole entry)": "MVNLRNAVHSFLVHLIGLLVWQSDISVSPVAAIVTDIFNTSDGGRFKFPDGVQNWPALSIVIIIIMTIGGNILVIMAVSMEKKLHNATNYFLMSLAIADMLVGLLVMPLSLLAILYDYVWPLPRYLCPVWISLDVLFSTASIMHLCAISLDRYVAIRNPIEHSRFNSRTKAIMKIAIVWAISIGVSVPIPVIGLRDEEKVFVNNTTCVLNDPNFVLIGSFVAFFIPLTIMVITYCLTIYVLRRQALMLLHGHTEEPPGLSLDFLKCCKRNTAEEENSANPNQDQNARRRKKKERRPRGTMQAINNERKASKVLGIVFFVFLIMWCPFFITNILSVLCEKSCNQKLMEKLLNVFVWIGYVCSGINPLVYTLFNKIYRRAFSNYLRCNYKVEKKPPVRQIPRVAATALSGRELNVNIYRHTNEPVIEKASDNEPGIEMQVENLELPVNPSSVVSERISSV", "experiment": "Affinity against 5-hydroxytryptamine 2C receptor"}, "[5]": {"target": "5-hydroxytryptamine receptor 6 (Homo sapiens, UniProt P50406)", "sequence (P50406 whole entry)": "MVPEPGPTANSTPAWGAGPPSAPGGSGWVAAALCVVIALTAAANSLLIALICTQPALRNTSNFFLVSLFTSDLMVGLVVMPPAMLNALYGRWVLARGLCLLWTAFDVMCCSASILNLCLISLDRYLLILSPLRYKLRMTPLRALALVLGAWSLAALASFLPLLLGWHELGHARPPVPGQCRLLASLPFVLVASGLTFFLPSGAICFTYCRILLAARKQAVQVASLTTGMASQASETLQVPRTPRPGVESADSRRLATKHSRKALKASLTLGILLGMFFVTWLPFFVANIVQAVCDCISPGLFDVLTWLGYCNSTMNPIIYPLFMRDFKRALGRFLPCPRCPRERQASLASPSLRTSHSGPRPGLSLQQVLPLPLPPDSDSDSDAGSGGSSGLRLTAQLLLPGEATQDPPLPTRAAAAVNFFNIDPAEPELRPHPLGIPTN", "experiment": "Affinity against 5-hydroxytryptamine 6 receptor"}, "Rattus norvegicus [6]": {"tested_on": "Rattus norvegicus", "experiment": "Spontaneous locomotion in rats was determined and distance moved was reported at dose 3.2 mg/kg by ip administration", "assay_type": "functional", "details": "route intraperitoneal"}, "Rattus norvegicus [7]": {"tested_on": "Rattus norvegicus", "experiment": "Forced motor performance in rats was determined and traction test score was reported at 0.32 mg/kg by ip administration", "assay_type": "functional", "details": "route intraperitoneal"}, "D(3) dopamine receptor": {"target": "D(3) dopamine receptor (Homo sapiens, UniProt P35462)", "sequence (P35462 whole entry)": "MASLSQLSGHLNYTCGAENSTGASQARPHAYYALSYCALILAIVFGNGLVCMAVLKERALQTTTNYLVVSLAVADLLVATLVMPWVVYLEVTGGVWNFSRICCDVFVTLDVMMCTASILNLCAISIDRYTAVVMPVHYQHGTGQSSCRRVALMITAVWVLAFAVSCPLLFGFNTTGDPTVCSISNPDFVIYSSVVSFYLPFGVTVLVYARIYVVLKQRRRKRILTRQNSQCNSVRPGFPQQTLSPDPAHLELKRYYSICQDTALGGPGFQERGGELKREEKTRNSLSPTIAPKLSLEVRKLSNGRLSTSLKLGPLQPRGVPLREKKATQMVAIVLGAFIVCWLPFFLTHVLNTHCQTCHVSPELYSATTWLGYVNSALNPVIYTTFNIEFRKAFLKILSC", "experiment": "Affinity against Dopamine receptor D3"}, "D(1A) dopamine receptor": {"target": "D(1A) dopamine receptor (Mus musculus, UniProt Q61616)", "sequence (Q61616 whole entry)": "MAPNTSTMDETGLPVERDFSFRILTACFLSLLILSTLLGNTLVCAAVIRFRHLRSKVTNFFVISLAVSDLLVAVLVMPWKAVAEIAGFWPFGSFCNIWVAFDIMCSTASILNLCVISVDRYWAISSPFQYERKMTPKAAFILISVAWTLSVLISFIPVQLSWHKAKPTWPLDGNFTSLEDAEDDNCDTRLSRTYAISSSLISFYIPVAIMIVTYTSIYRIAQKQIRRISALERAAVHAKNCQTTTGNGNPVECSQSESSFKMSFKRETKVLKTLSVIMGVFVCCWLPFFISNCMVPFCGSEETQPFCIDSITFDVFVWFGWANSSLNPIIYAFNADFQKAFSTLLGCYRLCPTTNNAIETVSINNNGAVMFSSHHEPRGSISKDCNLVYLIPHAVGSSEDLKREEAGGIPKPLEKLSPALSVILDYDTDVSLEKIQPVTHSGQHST", "experiment": "Affinity against Dopamine receptor D1"}, "[8]": {"experiment": "Affinity against Corticotropin releasing factor receptor 2 alpha"}, "[9]": {"target": "T2, Corticotropin-releasing factor receptor 1 (Rattus norvegicus, UniProt P35353)", "T2 sequence (P35353 whole entry)": "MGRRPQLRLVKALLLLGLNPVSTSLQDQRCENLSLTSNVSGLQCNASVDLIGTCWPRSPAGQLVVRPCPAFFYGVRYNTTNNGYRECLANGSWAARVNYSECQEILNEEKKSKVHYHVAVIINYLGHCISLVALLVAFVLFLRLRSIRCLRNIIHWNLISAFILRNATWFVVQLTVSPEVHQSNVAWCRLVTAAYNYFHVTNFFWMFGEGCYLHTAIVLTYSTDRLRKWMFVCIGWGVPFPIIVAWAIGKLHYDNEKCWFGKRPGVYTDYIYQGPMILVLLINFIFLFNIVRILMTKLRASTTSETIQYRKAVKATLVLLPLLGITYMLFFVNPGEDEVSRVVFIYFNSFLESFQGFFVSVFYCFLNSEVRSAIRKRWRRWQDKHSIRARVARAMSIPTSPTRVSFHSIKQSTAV", "experiment": "Affinity against Corticotropin releasing factor receptor 1"}, "Rattus norvegicus [10]": {"tested_on": "Rattus norvegicus", "experiment": "Forced motor performance in rats was determined and traction test score was reported at 1 mg/kg by ip administration", "assay_type": "functional", "details": "route intraperitoneal"}, "Rattus norvegicus [11]": {"tested_on": "Rattus norvegicus", "experiment": "Forced motor performance in rats was determined and grip strength was reported at 1 mg/kg by ip administration", "assay_type": "functional", "details": "route intraperitoneal"}, "Rattus norvegicus [12]": {"tested_on": "Rattus norvegicus", "experiment": "Forced motor performance in rats was determined and grip strength was reported at 0.32 mg/kg by ip administration", "assay_type": "functional", "details": "route intraperitoneal"}, "[13]": {"target": "5-hydroxytryptamine receptor 2A (Homo sapiens, UniProt P28223)", "sequence (P28223 whole entry)": "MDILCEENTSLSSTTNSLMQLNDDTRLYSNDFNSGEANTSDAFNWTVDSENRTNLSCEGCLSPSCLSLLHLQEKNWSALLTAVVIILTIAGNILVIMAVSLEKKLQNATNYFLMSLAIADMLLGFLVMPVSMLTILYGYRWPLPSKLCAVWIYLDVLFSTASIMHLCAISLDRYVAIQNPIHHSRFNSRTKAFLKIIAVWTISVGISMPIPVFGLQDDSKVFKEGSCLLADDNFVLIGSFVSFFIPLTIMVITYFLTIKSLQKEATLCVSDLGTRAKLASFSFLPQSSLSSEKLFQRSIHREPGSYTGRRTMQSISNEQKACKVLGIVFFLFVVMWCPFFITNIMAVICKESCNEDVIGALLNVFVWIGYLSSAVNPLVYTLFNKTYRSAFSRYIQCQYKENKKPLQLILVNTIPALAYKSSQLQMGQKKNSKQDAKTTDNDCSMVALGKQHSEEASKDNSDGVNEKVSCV", "experiment": "Affinity against 5-hydroxytryptamine 2A receptor"}, "[14]": {"target": "GABA-A receptor; anion channel", "experiment": "Binding affinity for GABA-A central benzodiazepine receptor", "assay_type": "protein-complex assay"}, "D(4) dopamine receptor": {"target": "T3, D(4) dopamine receptor (Homo sapiens, UniProt P21917)", "T3 sequence (P21917 whole entry)": "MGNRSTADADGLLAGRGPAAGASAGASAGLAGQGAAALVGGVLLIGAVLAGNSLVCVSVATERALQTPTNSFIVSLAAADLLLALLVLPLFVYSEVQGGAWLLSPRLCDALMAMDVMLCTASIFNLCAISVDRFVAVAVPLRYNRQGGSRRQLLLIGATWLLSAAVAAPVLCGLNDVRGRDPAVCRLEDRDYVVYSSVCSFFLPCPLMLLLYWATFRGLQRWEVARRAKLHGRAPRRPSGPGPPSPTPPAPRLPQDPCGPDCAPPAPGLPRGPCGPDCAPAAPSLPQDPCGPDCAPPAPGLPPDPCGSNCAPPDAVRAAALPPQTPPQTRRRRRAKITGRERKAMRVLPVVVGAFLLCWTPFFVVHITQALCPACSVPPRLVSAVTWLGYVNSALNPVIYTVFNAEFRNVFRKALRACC", "experiment": "Affinity against Dopamine receptor D4.4"}, "Rattus norvegicus [15]": {"tested_on": "Rattus norvegicus", "experiment": "Forced motor performance in rats was determined and traction test score was reported at 3.2 mg/kg by ip administration", "assay_type": "functional", "details": "route intraperitoneal"}, "[16]": {"target": "5-hydroxytryptamine receptor 7 (Homo sapiens, UniProt P34969)", "sequence (P34969 whole entry)": "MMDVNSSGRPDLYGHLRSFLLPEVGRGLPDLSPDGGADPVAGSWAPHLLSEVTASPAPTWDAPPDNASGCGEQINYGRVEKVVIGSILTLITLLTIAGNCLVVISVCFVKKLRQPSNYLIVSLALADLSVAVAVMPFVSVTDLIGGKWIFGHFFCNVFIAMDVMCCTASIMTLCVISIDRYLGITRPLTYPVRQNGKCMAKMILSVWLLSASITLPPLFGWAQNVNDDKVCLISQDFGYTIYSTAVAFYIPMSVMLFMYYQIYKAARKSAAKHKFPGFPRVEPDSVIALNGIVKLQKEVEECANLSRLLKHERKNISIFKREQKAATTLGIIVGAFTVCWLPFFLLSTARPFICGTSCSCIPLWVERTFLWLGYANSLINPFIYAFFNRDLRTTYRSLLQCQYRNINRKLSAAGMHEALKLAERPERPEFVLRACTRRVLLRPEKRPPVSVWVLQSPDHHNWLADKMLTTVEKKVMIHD", "experiment": "Affinity against 5-hydroxytryptamine 7 receptor"}, "[17]": {"target": "5-hydroxytryptamine receptor 1D (Homo sapiens, UniProt P28221)", "sequence (P28221 whole entry)": "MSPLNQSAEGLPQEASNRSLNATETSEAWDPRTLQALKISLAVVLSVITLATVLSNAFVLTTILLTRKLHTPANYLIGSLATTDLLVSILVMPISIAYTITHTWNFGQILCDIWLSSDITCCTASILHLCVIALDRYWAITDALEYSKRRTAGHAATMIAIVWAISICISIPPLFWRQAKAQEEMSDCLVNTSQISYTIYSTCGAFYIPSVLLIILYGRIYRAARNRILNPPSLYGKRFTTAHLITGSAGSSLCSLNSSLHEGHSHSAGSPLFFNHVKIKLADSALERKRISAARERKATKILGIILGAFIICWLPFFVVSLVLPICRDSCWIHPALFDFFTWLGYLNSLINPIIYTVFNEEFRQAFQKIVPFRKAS", "experiment": "Affinity against 5-hydroxytryptamine 1D receptor alpha"}, "Rattus norvegicus [18]": {"tested_on": "Rattus norvegicus", "experiment": "Spontaneous locomotion in rats was determined and distance moved was reported at dose 0.32 mg/kg by ip administration", "assay_type": "functional", "details": "route intraperitoneal"}},
  "note": "Activity calls are given as the source filed them. The rule behind the calls is not given here.",
  "data": [
    {"compound": "CN1CC[C@]23c4c5ccc(O)c4O[C@H]2[C@@H](O)C=C[C@H]3[C@H]1C5", "values": [
      {"measurement": "Activity", "setting": "[1]", "value": "inactive"}
    ]},
    {"compound": "O=C1NCN(c2ccccc2)C12CCN([C@@H]1Cc3cccc4cccc1c34)CC2", "values": [
      {"measurement": "Grip strength", "setting": "Rattus norvegicus [2]", "value": 479, "unit": "g"},
      {"measurement": "Locomotion", "setting": "Rattus norvegicus [3]", "value": 1465.79, "unit": "cm"},
      {"measurement": "Log Ki", "setting": "D(2) dopamine receptor", "value": "< -6.5"},
      {"measurement": "Log Ki", "setting": "[4]", "value": "< -6.5"},
      {"measurement": "Log Ki", "setting": "[5]", "value": "< -6.5"},
      {"measurement": "Locomotion", "setting": "Rattus norvegicus [6]", "value": 1141.08, "unit": "cm"},
      {"measurement": "Traction test", "setting": "Rattus norvegicus [7]", "value": 4, "unit": "score"},
      {"measurement": "Log Ki", "setting": "D(3) dopamine receptor", "value": "< -6.5"},
      {"measurement": "Log Ki", "setting": "D(1A) dopamine receptor", "value": "< -6.5"},
      {"measurement": "Log Ki", "setting": "[8]", "value": "< -6.5"},
      {"measurement": "Log Ki", "setting": "[9]", "value": "< -6.5"},
      {"measurement": "Traction test", "setting": "Rattus norvegicus [10]", "value": 4, "unit": "score"},
      {"measurement": "Grip strength", "setting": "Rattus norvegicus [11]", "value": 521.63, "unit": "g"},
      {"measurement": "Grip strength", "setting": "Rattus norvegicus [12]", "value": 516.25, "unit": "g"},
      {"measurement": "Log Ki", "setting": "[13]", "value": "< -6.5"},
      {"measurement": "Log Ki", "setting": "[14]", "value": "< -6.5"},
      {"measurement": "Log Ki", "setting": "D(4) dopamine receptor", "value": "< -6.5"},
      {"measurement": "Traction test", "setting": "Rattus norvegicus [15]", "value": 3.75, "unit": "score"},
      {"measurement": "Log Ki", "setting": "[16]", "value": "< -6.5"},
      {"measurement": "Log Ki", "setting": "[17]", "value": "< -6.5"},
      {"measurement": "Locomotion", "setting": "Rattus norvegicus [18]", "value": 1412.39, "unit": "cm"}
    ]}
  ]
}
